In the supplement of paper PMC10307832:

Tests used:
Experiment in all cases: relative viability (nuclei count vs DMSO), 5 days (fraction); higher = more cells survive
[1] = compound: C1=CC2=NC=CN=C2C=C1/C=C/3\C(=O)NC(=O)S3 + Cc1nc(NC(=O)N2CCC[C@H]2C(N)=O)sc1-c1ccnc(C(C)(C)C(F)(F)F)c1 [Alpelisib] (partner 2 µM)
Summary of the method: (§1)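 Lung cancer cell lines were pin-tool dosed in 1536-well plates on the day after seeding, with either a lone drug or a fixed anchor-drug dose plus five library-drug doses (not always all listed) in √10 steps. Nuclei were counted on 4× images after 5 days. Relative viability is the ratio of treated-well to vehicle-well nuclei counts, with each value a median of duplicate plates.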

[2] = compound: C1=CC2=NC=CN=C2C=C1/C=C/3\C(=O)NC(=O)S3 + O=C(c1cc(Cc2n[nH]c(=O)c3ccccc23)ccc1F)N1CCN(C(=O)C2CC2)CC1 [Olaparib] (partner 8 µM)
Summary of the method: as §1

BGJ398 + Bortezomib = compound: CCN1CCN(c2ccc(Nc3cc(N(C)C(=O)Nc4c(Cl)c(OC)cc(OC)c4Cl)ncn3)cc2)CC1 [BGJ398] + CC(C)C[C@H](NC(=O)[C@H](Cc1ccccc1)NC(=O)c1cnccn1)B(O)O [Bortezomib] (partner 0.002 µM)
Summary of the method: as §1

BGJ398 + Linsitinib = compound: CCN1CCN(c2ccc(Nc3cc(N(C)C(=O)Nc4c(Cl)c(OC)cc(OC)c4Cl)ncn3)cc2)CC1 [BGJ398] + C[C@]1(O)C[C@@H](c2nc(-c3ccc4ccc(-c5ccccc5)nc4c3)c3c(N)nccn32)C1 [Linsitinib] (partner 1 µM)
Summary of the method: as §1

Cell Line	relative viability ([1]; first compound 0.02 µM)	relative viability ([1]; first compound 0.06325 µM)	relative viability ([1]; first compound 0.2 µM)	relative viability ([1]; first compound 0.6325 µM)	relative viability ([1]; first compound 2 µM)	relative viability ([2]; first compound 0.02 µM)	relative viability ([2]; first compound 0.06325 µM)	relative viability ([2]; first compound 0.2 µM)	relative viability ([2]; first compound 0.6325 µM)	relative viability ([2]; first compound 2 µM)	relative viability (BGJ398 + Bortezomib; first compound 0.01 µM)	relative viability (BGJ398 + Bortezomib; first compound 0.1 µM)	relative viability (BGJ398 + Bortezomib; first compound 0.3162 µM)	relative viability (BGJ398 + Bortezomib; first compound 1 µM)	relative viability (BGJ398 + Linsitinib; first compound 0.01 µM)	relative viability (BGJ398 + Linsitinib; first compound 0.03162 µM)	relative viability (BGJ398 + Linsitinib; first compound 0.1 µM)	relative viability (BGJ398 + Linsitinib; first compound 0.3162 µM)	relative viability (BGJ398 + Linsitinib; first compound 1 µM)	relative viability (BGJ398 + Bortezomib; first compound 0.03162 µM)
H3255	0.734	0.903	0.661	0.907	0.717	0.583	0.509	0.56	0.594	0.517	0.712	0.712	0.439	0.69	0.887	0.35	0.919	0.708	1.05	–
201T	0.955	1.05	1.01	0.978	0.877	0.878	0.81	0.844	0.828	0.866	1.24	1.11	1.07	1.04	1.17	1.08	1.07	1.06	1.01	1.08
NCI-H2126	0.662	0.786	0.752	0.757	0.639	0.932	0.946	0.841	0.904	0.799	1.14	1.11	1.11	1.12	0.688	0.692	0.713	0.739	0.746	1.1
HOP-62	0.898	1.02	1.11	1.09	1.05	0.481	0.389	0.357	0.452	0.424	0.726	1.12	0.585	0.788	1	1.11	1.02	0.876	0.946	1.05
CAL-12T	1.3	1.11	1.11	1.3	1.15	0.64	0.784	0.692	0.779	0.672	0.954	0.996	0.943	0.837	0.774	0.782	0.882	0.773	0.756	0.852
NCI-H520	0.866	0.948	0.822	0.877	1.01	0.283	0.321	0.352	0.298	0.345	0.538	0.259	0.201	0.162	0.934	0.922	0.735	0.435	0.367	0.54
NCI-H1755	0.878	0.824	0.941	0.888	0.896	0.774	0.86	0.886	0.872	0.908	1	0.975	0.921	0.875	0.93	1.01	0.983	0.955	1.01	0.872
NCI-H2023	0.57	0.609	0.587	0.606	0.511	0.428	0.461	0.508	0.492	0.498	0.966	0.978	0.883	1.12	0.602	0.831	0.657	0.688	0.646	1.07
NCI-H2009	1.24	1.21	1.17	1.18	1.21	0.685	0.715	0.685	0.739	0.703	0.918	0.955	0.978	1.14	1.18	1.24	1.14	1.16	1.17	1.09
